# Test system: newborn Swiss mice
# Test: Experiment II: carcinogenicity in newborn mice, chrysene, 7-methylbenz(a)anthracene and K region epoxides (s.c. injection, tumour incidence to 70-75 weeks)
# Details: for effect on the incidence of liver, lung or other tumours: in the doses tested (3 x 100 µg or 1 x 60 µg)
# Excerpt: Br. J. Cancer (1975) 31, 182 THE CARCINOGENICITY OF POLYCYCLIC HYDROCARBON EPOXIDES IN NEWBORN MICE P. L. GROVER, P. SIMS, B. C. V. MITCHLEY AND F. J. C. ROE From the Chester Beatty Research Institute, Institute of Cancer Research, Royal Cancer Hospital, Fulham Road, London, SW3 6JB Received 9 August 1974. […] THE HYPOTHESIS that the carcino- genicity of polycyclic hydrocarbons is associated with the formation of epoxide metabolites (Grover, Hewer and Sims, 1971, 1972; Keysell et al., 1973) is sup- ported by some experimental evidence but remains unproven. […] The epoxides can also act as alkylating agents (Grover and Sims, 1970) and as mutagens (Ames, Sims and Grover, 1972; Huberman et al., 1971; Cookson, Sims and Grover, 1971; Fahmy and Fahmy, 1973). […] The newborn mouse, which is susceptible to carcinogenic polycyclic hydrocarbons (Roe, Rowson and Salaman, 1961; Roe, Mitchley and Walters, 1963; Walters and Roe, 1964, 1966) can be considered as a convenient source of several types of rapidly dividing cells. Consequently we have tested the K region epoxides derived from phenanthrene, benz(a)anthracene, 7-methylbenz(a)anthracene, dibenz(a,h)- anthracene, chrysene and 3-methylchol- anthrene, together with some of the CARCINOGENICITY OF POLYCYCLIC HYDROCARBON EPOXIDES IN MICE 183 parent hydrocarbons, for carcinogenicity using newborn mice. This paper presents the results that were obtained in these experiments. MATERIALS AND METHODS The polycyclic hydrocarbon epoxides, phenanthrene 9,10-oxide, benz(a)anthracene 5,6-oxide, 7-methylbenz(a)anthracene 5,6- oxide, dibenz(a,h)anthracene 5,6-oxide, chry- sene 5,6-oxide and 3-methylcholanthrene 11,12-oxide were prepared from the parent hydrocarbons (Newman and Blum, 1964; Boyland and Sims, 1965; Sims 1966). Two experiments were undertaken fol- lowing similar protocols. For each experi- ment Swiss mice from a specific pathogen- free colony were time mated so as to produce a large number of litters over the course of 2 or 3 days. […] Test compounds were suspended in poly- ethylene glycol (PEG) 400 and injections of 0-02 ml of the suspension were given by introducing a 25 gauge hypodermic needle through the skin near the root of the tail and threading it subcutaneously to deliver the injected material in the interscapular region. Injections were given to every mouse on the first day or first 3 days of life. The details of treatments and numbers of mice of each sex in each group are shown in Table I (Experiment I) and Table II (Ex- periment II). Surviving mice were weaned when they w ere 21 days old. Thereafter, males and females w ere separated and housed 6 per cage in metal boxes. A mixture of sawdust and wood shavings was used as bedding. The mice were fed on a standard cubed diet (Formulation 86 from C. Holdman and Sons (Plow co Feeds), Byers Lane, South Godstone, Surrey) and water was given ad libitum. Mice were inspected daily, and at weekly intervals they were weighed and palpated for tumours and other lesions. […] The experiment was terminated when surviving mice were between 70 and 75 weeks old. A full routine post- mortem examination, which included disten- sion of the urinary bladder with fixative, was carried out. The number of lesions thought to be neoplasms and the size of the largest such lesion in each organ affected were recorded. All tissues with suspected neoplasms were fixed in Bouin's solution. Haematoxylin and eosin stained 5 µm paraffin wax sections were prepared and examined microscopically. RESULTS The results of the two experiments in terms of tumour incidence are sum- marized in […].
# [1] = females, 60 µg, 1 treatment (Day 0 only) s.c. in PEG 400
# [2] = males, 60 µg, 1 treatment (Day 0 only) s.c. in PEG 400
# [3] = females, 100 µg per treatment, 3 treatments
# [4] = females, 100 µg per treatment, 3 treatments (Days 0, 1 and 2) s.c. in PEG 400
# [5] = males, 100 µg per treatment, 3 treatments
# [6] = males, 100 µg per treatment, 3 treatments (Days 0, 1 and 2) s.c. in PEG 400
smiles,measurement,setting,value
"c1ccc2c(c1)-c1cc3ccc4ccccc4c3cc1C1OC21 (stereo not drawn) [Dibenz(a,h)anthracene 5,6-oxide]",No. of mice examined at p.m. at termination of experiment (70-75th week) with liver tumours,"females, 60 µg, 1 treatment",0
same,No. of mice examined at p.m. at termination of experiment (70-75th week) with lung tumours,"females, 60 µg, 1 treatment",1
same,No. of mice examined at p.m. at termination of experiment (70-75th week) with multiple liver tumours,"females, 60 µg, 1 treatment",0
same,No. of mice examined at p.m. at termination of experiment (70-75th week) with multiple lung tumours,"females, 60 µg, 1 treatment",0
same,No. of mice examined at p.m. at termination of experiment (70-75th week) with other tumours,"females, 60 µg, 1 treatment",1
same,No. of mice examined at p.m. from 50-70th week with liver tumours,"females, 60 µg, 1 treatment",0
same,No. of mice examined at p.m. from 50-70th week with lung tumours,"females, 60 µg, 1 treatment",0
same,No. of mice examined at p.m. from 50-70th week with other tumours,"females, 60 µg, 1 treatment",0
same,No. of survivors at 50 weeks,[1],20
same,No. of survivors at 70 weeks,[1],19
same,"effect on the incidence of liver, lung or other tumours",,without apparent effect
same,No. of mice examined at p.m. at termination of experiment (70-75th week) with liver tumours,"males, 60 µg, 1 treatment",2
same,No. of mice examined at p.m. at termination of experiment (70-75th week) with lung tumours,"males, 60 µg, 1 treatment",0
same,No. of mice examined at p.m. at termination of experiment (70-75th week) with multiple liver tumours,"males, 60 µg, 1 treatment",1
same,No. of mice examined at p.m. at termination of experiment (70-75th week) with multiple lung tumours,"males, 60 µg, 1 treatment",0
same,No. of mice examined at p.m. at termination of experiment (70-75th week) with other tumours,"males, 60 µg, 1 treatment",0
same,No. of mice examined at p.m. from 50-70th week with liver tumours,"males, 60 µg, 1 treatment",0
same,No. of mice examined at p.m. from 50-70th week with lung tumours,"males, 60 µg, 1 treatment",0
same,No. of mice examined at p.m. from 50-70th week with other tumours,"males, 60 µg, 1 treatment",0
same,No. of survivors at 50 weeks,[2],19
same,No. of survivors at 70 weeks,[2],16
"c1ccc2c(c1)-c1ccccc1C1OC21 (stereo not drawn) [phenanthrene 9,10-oxide]",No. of mice examined at p.m. at termination of experiment (70-75th week) with liver tumours,[3],2
same,No. of mice examined at p.m. at termination of experiment (70-75th week) with lung tumours,[3],0
same,No. of mice examined at p.m. at termination of experiment (70-75th week) with multiple liver tumours,[3],1
same,No. of mice examined at p.m. at termination of experiment (70-75th week) with multiple lung tumours,[3],0
same,No. of mice examined at p.m. at termination of experiment (70-75th week) with other tumours,[3],0
same,No. of mice examined at p.m. from 50-70th week with liver tumours,[3],0
same,No. of mice examined at p.m. from 50-70th week with lung tumours,[3],0
same,No. of mice examined at p.m. from 50-70th week with other tumours,[3],0
same,No. of survivors at 50 weeks,[4],13
same,No. of survivors at 70 weeks,[4],13
same,"effect on the incidence of liver, lung or other tumours",,no effect
same,No. of mice examined at p.m. at termination of experiment (70-75th week) with liver tumours,[5],4
same,No. of mice examined at p.m. at termination of experiment (70-75th week) with lung tumours,[5],2
same,No. of mice examined at p.m. at termination of experiment (70-75th week) with multiple liver tumours,[5],1
same,No. of mice examined at p.m. at termination of experiment (70-75th week) with multiple lung tumours,[5],1
same,No. of mice examined at p.m. at termination of experiment (70-75th week) with other tumours,[5],0
same,No. of mice examined at p.m. from 50-70th week with liver tumours,[5],0
same,No. of mice examined at p.m. from 50-70th week with lung tumours,[5],0
same,No. of mice examined at p.m. from 50-70th week with other tumours,[5],0
same,No. of survivors at 50 weeks,[6],19
same,No. of survivors at 70 weeks,[6],17

# Source: publication PMC2009384, “The carcinogenicity of polycyclic hydrocarbon epoxides in newborn mice” (British Journal of Cancer, 1975)
